{
  "source": "patent US20090105245A1",
  "about": "“METHODS FOR TREATING MACULAR EDEMA AND OCULAR ANGIOGENESIS USING AN ANTI-INFLAMMATORY AGENT AND A RECEPTOR TYROSINE KINASE INHIBITOR” (priority 2006, published 2009)",
  "type_in_all_cases": "in vivo",
  "key": {"[1]": {"system": "existing laser-induced choroidal neovascularization (CNV) in the mouse", "assay": "Mouse laser-induced CNV, regression paradigm, oral gavage from day 7", "conditions": "3 mg/kg/day, oral from day 7"}, "[2]": {"system": "laser-induced choroidal neovascularization (CNV) in the mouse", "assay": "Mouse laser-induced choroidal neovascularization (CNV), prevention, intravitreal injection", "description": "Methods. CNV was generated by laser-induced rupture of Bruch's membrane. Briefly, 4 to 5 week old male C57BL/6J mice were anesthetized using intraperitoneal administration of ketamine hydrochloride (100 mg/kg) and xylazine (5 mg/kg) and the pupils of both eyes dilated with topical ocular instillation of 1% tropicamide and 2.5% Mydfin®. One drop of topical cellulose (Gonioscopic®) was used to lubricate the cornea. A hand-held cover slip was applied to the cornea and used as a contact lens to aid visualization of the fundus. Three to four retinal burns were placed in randomly assigned eye (right or left eye for each mouse) using the Alcon 532 nm EyeLite laser with a slit lamp delivery system. The laser burns were used to generate a rupture in Bruch's membrane, which was indicated opthalmoscopically by the formation of a bubble under the retina. Only mice with laser burns that produced three bubbles per eye were included in the study. Burns were typically placed at the 3, 6, 9 or 12 o'clock positions in the posterior pole of the retina, avoiding the branch retinal arteries and veins.\nEach mouse was randomly assigned into one of the following treatment groups: noninjected controls, sham-injected controls, vehicle-injected mice, or one of three RTKi-injected groups. […]"}, "[3]": {"system": "laser-induced choroidal neovascularization (CNV) in the mouse", "assay": "Mouse laser-induced CNV, prevention paradigm, oral gavage", "conditions": "for inhibition of CNV: oral, prevention paradigm"}, "[4]": {"system": "VEGF-induced retinal vascular permeability", "assay": "VEGF-induced retinal vascular permeability in the rat (Evans blue), intravitreal injection", "conditions": "10 μl intravitreal", "description": "METHODS: Adult Sprague-Dawley rats were anesthetized with intramuscular ketamine/xylazine and their pupils dilated with topical cycloplegics. Rats were randomly assigned to intravitreal injection groups of 0% 0.3%, 1.0%, and 3.0% RTKI and a positive control. Ten μl of each compound was intravitreally injected in each treatment eye (n=6 eyes per group). Three days following first intravitreal injection, all animals received an intravitreal injection of 10 μl 1400 ng hr VEGF in both eyes. Twenty-four hours post-injection of VEGF, intravenous infusion of 3% Evans blue dye was performed in all animals, where 50 mg/kg of Evans blue dye was injected via the lateral tail vein during general anesthesia. After the dye had circulated for 90 minutes, the rats were euthanized. The rats were then systemically perfused with balanced salt solution, and then both eyes of each rat were immediately enucleated and the retinas harvested using a surgical microscope. After measurement of the retinal wet weight, the Evans blue dye was extracted by placing the retina in a 0.2 ml formamide (Sigma) and then the homogenized and ultracentrifuged. Blood samples were centrifuged and the plasma diluted 100 fold in formamide. For both retina and plasma samples, 60 μl of supernatant was used to measure the Evans blue dye absorbance (ABS) with at 620/740 nm. The blood-retinal barrier breakdown and subsequent retinal vascular permeability as measured by dye absorbance were calculated as means ±s.e.m. of net ABS/wet weight/plasma ABS. A two-tailed Student's t-test were used for pair wise comparisons between OS and OD eyes in each group. One way ANOVA was used to determine an overall difference between treatment means, where P≦0.05 was considered significant."}},
  "data": [
    {"smiles": "Cc1ccc(F)c(NC(=O)Nc2ccc(-c3cccc4[nH]nc(N)c34)cc2)c1", "note": "[Compound 86, N-[4-[3-amino-1H-indazol-4-yl]phenyl]-N′-(2-fluoro-5-methylphenyl)urea]", "values": [
      {"measurement": "regression of existing CNV", "setting": "[1]", "result": "did not show a significant regression of existing CNV"},
      {"measurement": "CNV vs vehicle injected eyes", "setting": "[2]; 0.3% RTKi, 5 ul intravitreal (P=0.082)", "result": "marginal statistical difference"},
      {"measurement": "inhibition of laser-induced CNV", "setting": "[2]; single intravitreal injection, mouse (FIG. 3)", "result": "inhibits laser-induced choroidal neovascularization (CNV)"},
      {"measurement": "inhibition of CNV", "setting": "[3]; 3 mg/kg/day", "result": "no significant inhibition"},
      {"measurement": "inhibition of CNV", "setting": "[3]; 20 mg/kg/d", "result": "complete inhibition of CNV"},
      {"measurement": "inhibition of laser-induced CNV", "setting": "[3]; oral gavage, mouse (FIG. 6)", "result": "inhibits laser-induced choroidal neovascularization (CNV)"},
      {"measurement": "decrease of retinal vascular permeability vs vehicle-injected eyes", "setting": "[4]; 0.3% RTKi", "result": 50, "unit": "%"},
      {"measurement": "decrease of retinal vascular permeability vs vehicle-injected eyes", "setting": "[4]; 1.0% RTKi", "result": 61, "unit": "%"},
      {"measurement": "decrease of retinal vascular permeability vs vehicle-injected eyes", "setting": "[4]; 3% RTKi", "result": 53, "unit": "%"}
    ]}
  ]
}
